Measured values from patent US20230192712A1, “MODULATORS OF THE INTEGRATED STRESS PATHWAY” (Calico Life Sciences LLC, priority 2017, published 2023).

Tested on: HEK293T cells carrying the ATF4 luciferase reporter
Experiment: ATF4-Luc assay (in vitro model of VWMD)
Format: cell-based
Settings: Homo sapiens, HEK-293T; HEK293T ATF4 5'-UTR firefly luciferase reporter cells, 1 μg/mL tunicamycin, 7 hours, One Glo luminescence
Experimental: In order to test exemplary compounds of the invention in a cellular context, a stable VWMD cell line was first constructed. The ATF4 reporter was prepared by fusing the human full-length ATF4 5′-UTR (NCBI Accession No. BC022088.2) in front of the firefly luciferase (FLuc) coding sequence lacking the initiator methionine as described in Sidrauski et al (eLife 2013). The construct was used to produce recombinant retroviruses using standard methods and the resulting viral supernatant was used to transduce HEK293T cells, which were then subsequently selected with puromycin to generate a stable cell line.
HEK293T cells carrying the ATF4 luciferase reporter were plated on polylysine coated 384-well plates (Greiner Bio-one) at 30,000 cells per well. Cells were treated the next day with 1 μg/mL tunicamycin and 200 nM of a compound of Formula (I) or Formula (II) for 7 hours. Luminescence was measured using One Glo (Promega) as specified by the manufacturer. Cells were maintained in DMEM with L-glutamine supplemented with 10% heat-inactivated FBS (Gibco) and Antibiotic-Antimycotic solution (Gibco).
Table 2 below summarizes the EC50 data obtained using the ATF4-Luc assay for exemplary compounds of the invention.

SMILES	EC50
O=C(COc1ccc(Cl)c(F)c1)NC12CCC(C(=O)N3CC(O)(c4ccc(Cl)cc4)C3)(CC1)[C@H](O)C2 [Compound 109, 2-(4-chloro-3-fluorophenoxy)-N-{(3R)-4-[3-(4-chlorophenyl)-3-hydroxyazetidine-1-carbonyl]-3-hydroxybicyclo[2.2.2]octan-1-yl}acetamide]	50 to 250 nM
O=C(COc1ccc(Cl)c(F)c1)NC12CCC(C(=O)N3CC(c4ccc(Cl)cc4)C3)(CC1)CC2 [Compound 105, 2-(4-chloro-3-fluorophenoxy)-N-{4-[3-(4-chlorophenyl)azetidine-1-carbonyl]bicyclo[2.2.2]octan-1-yl}acetamide]	< 50 nM
O=C(COc1ccc(Cl)c(F)c1)NC12CCC(C(=O)N3CCN(c4ccc(Cl)cc4)CC3)(CC1)CC2 [Compound 107, 2-(4-chloro-3-fluorophenoxy)-N-{4-[4-(4-chlorophenyl)piperazine-1-carbonyl]bicyclo[2.2.2]octan-1-yl}acetamide]	50 to 250 nM
O=C(COc1ccc(Cl)c(F)c1)NC12CCC(C(=O)N3CC(c4ccccc4)C3)(CC1)CC2O (stereo not shown) [Compound 113, 2-(4-chloro-3-fluorophenoxy)-N-[2-hydroxy-4-(3-phenylazetidine-1-carbonyl)bicyclo[2.2.2]octan-1-yl]acetamide]	250 to 1000 nM
O=C(COc1ccc(Cl)c(F)c1)NC12CC(C(=O)N3CC4(C3)CN(c3ccc(Cl)c(F)c3)C4)(C1)C2 [Compound 100, 2-(4-chloro-3-fluorophenoxy)-N-{3-[6-(4-chloro-3-fluorophenyl)-2,6-diazaspiro[3.3]heptane-2-carbonyl]bicyclo[1.1.1]pentan-1-yl}acetamide]	> 2000 nM
O=C(COc1ccc(Cl)c(F)c1)NC12CC(C(=O)N3CCC(c4ccc(Cl)cc4)CC3)(C1)C2 [Compound 101, 2-(4-chloro-3-fluorophenoxy)-N-{3-[4-(4-chlorophenyl)piperidine-1-carbonyl]bicyclo[1.1.1]pentan-1-yl}acetamide]	50 to 250 nM
O=C(COc1ccc(Cl)c(F)c1)NC12CCC(C(=O)N3CC(c4ccc(Cl)cc4)C3)(CC1)CC2O (stereo not shown) [Compound 115, 2-(4-chloro-3-fluorophenoxy)-N-{4-[3-(4-chlorophenyl)azetidine-1-carbonyl]-2-hydroxybicyclo[2.2.2]octan-1-yl}acetamide]	< 50 nM
O=C(COc1ccc(Cl)c(F)c1)NC12CC(C(=O)N3CCC(c4ccc(Cl)cc4)C3)(C1)C2 (stereo not shown) [Compound 103, 2-(4-chloro-3-fluorophenoxy)-N-{3-[3-(4-chlorophenyl)pyrrolidine-1-carbonyl]bicyclo[1.1.1]pentan-1-yl}acetamide]	> 2000 nM
O=C(COc1ccc(Cl)c(F)c1)NC12CCC(C(=O)N3CCC(c4ccc(Cl)cc4)CC3)(CC1)CC2 [Compound 102, 2-(4-chloro-3-fluorophenoxy)-N-{4-[4-(4-chlorophenyl)piperidine-1-carbonyl]bicyclo[2.2.2]octan-1-yl}acetamide]	50 to 250 nM
O=C(COc1ccc(Cl)c(F)c1)NC12CC(C(=O)N3CC(c4ccc(Cl)cc4)C3)(C1)C2 [Compound 106, 2-(4-chloro-3-fluorophenoxy)-N-{3-[3-(4-chlorophenyl)azetidine-1-carbonyl]bicyclo[1.1.1]pentan-1-yl}acetamide]	< 50 nM
O=C(COc1ccc(Cl)c(F)c1)NC12CCC(C(=O)N3CCC(c4ccc(Cl)cc4)C3)(CC1)CC2 (stereo not shown) [Compound 104, 2-(4-chloro-3-fluorophenoxy)-N-{4-[3-(4-chlorophenyl)pyrrolidine-1-carbonyl]bicyclo[2.2.2]octan-1-yl}acetamide]	> 2000 nM
O=C(COc1ccc(Cl)c(F)c1)NC12CCC(C(=O)N3Cc4ccc(Cl)cc4C3)(CC1)CC2 [Compound 112, N-[4-(5-chloro-1,3-dihydro-2H-isoindole-2-carbonyl)bicyclo[2.2.2]octan-1-yl]-2-(4-chloro-3-fluorophenoxy)acetamide]	> 2000 nM
O=C(COc1ccc(Cl)c(F)c1)NC12CC(C(=O)N3CC(O)(c4ccc(Cl)cc4)C3)(C1)C2 [Compound 110, 2-(4-chloro-3-fluorophenoxy)-N-{3-[3-(4-chlorophenyl)-3-hydroxyazetidine-1-carbonyl]bicyclo[1.1.1]pentan-1-yl}acetamide]	> 2000 nM
O=C(COc1ccc(Cl)c(F)c1)NC12CCC(C(=O)N3CCC(c4ccc(Cl)cc4)C3)(CC1)CC2O (stereo not shown) [Compound 114, 2-(4-chloro-3-fluorophenoxy)-N-{4-[3-(4-chlorophenyl)pyrrolidine-1-carbonyl]-2-hydroxybicyclo[2.2.2]octan-1-yl}acetamide]	> 2000 nM
O=C(COc1ccc(Cl)c(F)c1)NC12CC(C(=O)N3Cc4ccc(Cl)cc4C3)(C1)C2 [Compound 111, N-[3-(5-chloro-1,3-dihydro-2H-isoindole-2-carbonyl)bicyclo[1.1.1]pentan-1-yl]-2-(4-chloro-3-fluorophenoxy)acetamide]	250 to 1000 nM
O=C(COc1ccc(Cl)c(F)c1)NC12CCC(C(=O)N3CC(O)(c4ccc(Cl)cc4)C3)(CC1)[C@@H](O)C2 [Compound 108, 2-(4-chloro-3-fluorophenoxy)-N-{(3S)-4-[3-(4-chlorophenyl)-3-hydroxyazetidine-1-carbonyl]-3-hydroxybicyclo[2.2.2]octan-1-yl}acetamide]	250 to 1000 nM
